Experimental data taken from patent US20260027116A1, “Methods of Treating Chronic Graft-Versus-Host Disease Following Allogeneic Hematopoietic Stem Cell Transplantation” (Kadmon Corporation, LLC, priority 2022, published 2026).

Test system: cGVHD symptom burden
Experiment: Example 1: Lee Symptom Scale (LSS) score
Assay type: in vivo, human
Method: Lee Symptom Scale (LSS) summary score measures the effect on patients' functioning and well-being. The Lee Symptom Scale is a 30-item scale developed to measure the symptoms of cGVHD and is described in Lec S J, Cook E F, Soiffer R, Antin J H. Development and validation of a scale to measure symptoms of chronic graft-versushost disease. Biol Blood Marrow Transplant 2002; 8:444-452.
All responses were assessed by the investigators.
Change From Baseline in Overall Score on Lee cGvHD Symptom Scale at Specified Time Points. Lee cGVHD symptom scale, a patient-reported symptom scale used to measure symptom burden and has 7 subscales (Skin, Eyes and Mouth, Breathing, Eating and Digestion, Muscles and Joints, Energy, and Mental and Emotional) with ratings as follows: 0—Not at all, 1—Slightly, 2—Moderately, 3—Quite a bit, 4—Extremely, with lower values representing better outcome. Score for each subscale was normalized to a score ranged from 0 to 100, where higher score=worse symptoms. An overall score was calculated as average of these 7 subscales. EOT visit was performed within 3 days after the participant's last dose of study drug. Baseline value was defined as valid and last non-missing value obtained within 28 days prior to participant receiving first study medication. […] Analysis was performed on mITT population. Here, ‘number analyzed’=participants with available data for each specified category. Here, ‘0’ in the number analyzed field signifies that none of the participants were available for the analysis at the specified time points.

CC(C)NC(=O)COc1cccc(-c2nc(Nc3ccc4[nH]ncc4c3)c3ccccc3n2)c1 [Belumosudil, 2-{3-[4-(1H-indazol-5-ylamino)-2-quinazolinyl]phenoxy}-N-(propan-2-yl) acetamide]
Change From Baseline in Overall Score on Lee cGvHD Symptom Scale, Mean (Standard Deviation) (Cohort 2: 200 mg BID, Cycle 9, Day 1): −4.2 (5.5) score on a scale | Change From Baseline in Overall Score on Lee cGvHD Symptom Scale, Mean (Standard Deviation) (Cohort 2: 200 mg BID, Cycle 10, Day 1): −2.7 (6.1) score on a scale | Change From Baseline in Overall Score on Lee cGvHD Symptom Scale, Mean (Standard Deviation) (Cohort 2: 200 mg BID, Cycle 11, Day 1): −5.5 (6.0) score on a scale | Change From Baseline in Overall Score on Lee cGvHD Symptom Scale, Mean (Standard Deviation) (Cohort 2: 200 mg BID, Cycle 12, Day 1): −7.6 (7.7) score on a scale | Change From Baseline in Overall Score on Lee cGvHD Symptom Scale, Mean (Standard Deviation) (Cohort 2: 200 mg BID, Cycle 13, Day 1): −5.9 (8.8) score on a scale | Change From Baseline in Overall Score on Lee cGvHD Symptom Scale, Mean (Standard Deviation) (Cohort 2: 200 mg BID, Cycle 14, Day 1): −5.0 (7.3) score on a scale | Change From Baseline in Overall Score on Lee cGvHD Symptom Scale, Mean (Standard Deviation) (Cohort 2: 200 mg BID, Cycle 15, Day 1): −6.8 (7.0) score on a scale | Change From Baseline in Overall Score on Lee cGvHD Symptom Scale, Mean (Standard Deviation) (Cohort 2: 200 mg BID, Cycle 16, Day 1): −6.9 (7.6) score on a scale | Change From Baseline in Overall Score on Lee cGvHD Symptom Scale, Mean (Standard Deviation) (Cohort 2: 200 mg BID, Cycle 27, Day 1): −13.2 (6.6) score on a scale | Change From Baseline in Overall Score on Lee cGvHD Symptom Scale, Mean (Standard Deviation) (Cohort 2: 200 mg BID, Cycle 29, Day 1): −11.0 (7.3) score on a scale | Change From Baseline in Overall Score on Lee cGvHD Symptom Scale, Mean (Standard Deviation) (Cohort 2: 200 mg BID, Cycle 31, Day 1): −15.6 (4.3) score on a scale | Change From Baseline in Overall Score on Lee cGvHD Symptom Scale, Mean (Standard Deviation) (Cohort 2: 200 mg BID, Cycle 33, Day 1): −13.5 (9.0) score on a scale | Change From Baseline in Overall Score on Lee cGvHD Symptom Scale, Mean (Standard Deviation) (Cohort 2: 200 mg BID, Cycle 35, Day 1): −11.0 (12.4) score on a scale | Change From Baseline in Overall Score on Lee cGvHD Symptom Scale, Mean (Standard Deviation) (Cohort 2: 200 mg BID, Cycle 37, Day 1): −13.6 (8.1) score on a scale | Change From Baseline in Overall Score on Lee cGvHD Symptom Scale, Mean (Standard Deviation) (Cohort 2: 200 mg BID, Cycle 39, Day 1): −14.3 (8.5) score on a scale | Change From Baseline in Overall Score on Lee cGvHD Symptom Scale, Mean (Standard Deviation) (Cohort 2: 200 mg BID, Cycle 41, Day 1): −19.3 (—) score on a scale | Change From Baseline in Overall Score on Lee cGvHD Symptom Scale, Mean (Standard Deviation) (Cohort 2: 200 mg BID, Cycle 43, Day 1): −19.9 (—) score on a scale | Change From Baseline in Overall Score on Lee cGvHD Symptom Scale, Mean (Standard Deviation) (Cohort 2: 200 mg BID, Cycle 47, Day 1): −16.8 (—) score on a scale | Change From Baseline in Overall Score on Lee cGvHD Symptom Scale, Mean (Standard Deviation) (Cohort 2: 200 mg BID, Cycle 49, Day 1): −15.4 (—) score on a scale | Change From Baseline in Overall Score on Lee cGvHD Symptom Scale, Mean (Standard Deviation) (Cohort 2: 200 mg BID, EOT): −2.4 (10.9) score on a scale | LSS improvement, nonresponder, n/N (Cohort 3 400 mg QD): 2/8 | LSS improvement, responder, n/N (Cohort 3 400 mg QD): 9/13 | Change From Baseline in Overall Score on Lee cGvHD Symptom Scale, Mean (Standard Deviation) (Cohort 3: 400 mg QD, Cycle 2, Day 1): −5.2 (6.3) score on a scale | Change From Baseline in Overall Score on Lee cGvHD Symptom Scale, Mean (Standard Deviation) (Cohort 3: 400 mg QD, Cycle 3, Day 1): −4.3 (8.2) score on a scale | Change From Baseline in Overall Score on Lee cGvHD Symptom Scale, Mean (Standard Deviation) (Cohort 3: 400 mg QD, Cycle 4, Day 1): −2.7 (8.2) score on a scale | Change From Baseline in Overall Score on Lee cGvHD Symptom Scale, Mean (Standard Deviation) (Cohort 3: 400 mg QD, Cycle 5, Day 1): −0.5 (10.8) score on a scale | Change From Baseline in Overall Score on Lee cGvHD Symptom Scale, Mean (Standard Deviation) (Cohort 3: 400 mg QD, Cycle 6, Day 1): −0.8 (9.3) score on a scale | Change From Baseline in Overall Score on Lee cGvHD Symptom Scale, Mean (Standard Deviation) (Cohort 3: 400 mg QD, Cycle 7, Day 1): −2.0 (12.3) score on a scale | Change From Baseline in Overall Score on Lee cGvHD Symptom Scale, Mean (Standard Deviation) (Cohort 3: 400 mg QD, Cycle 8, Day 1): −2.9 (10.9) score on a scale | Change From Baseline in Overall Score on Lee cGvHD Symptom Scale, Mean (Standard Deviation) (Cohort 3: 400 mg QD, Cycle 9, Day 1): −3.6 (10.2) score on a scale | Change From Baseline in Overall Score on Lee cGvHD Symptom Scale, Mean (Standard Deviation) (Cohort 3: 400 mg QD, Cycle 10, Day 1): −3.7 (9.9) score on a scale | Change From Baseline in Overall Score on Lee cGvHD Symptom Scale, Mean (Standard Deviation) (Cohort 3: 400 mg QD, Cycle 11, Day 1): −4.5 (6.1) score on a scale | Change From Baseline in Overall Score on Lee cGvHD Symptom Scale, Mean (Standard Deviation) (Cohort 3: 400 mg QD, Cycle 12, Day 1): −2.8 (6.0) score on a scale | Change From Baseline in Overall Score on Lee cGvHD Symptom Scale, Mean (Standard Deviation) (Cohort 3: 400 mg QD, Cycle 13, Day 1): −0.6 (7.1) score on a scale | Change From Baseline in Overall Score on Lee cGvHD Symptom Scale, Mean (Standard Deviation) (Cohort 3: 400 mg QD, Cycle 14, Day 1): −1.5 (7.7) score on a scale | Change From Baseline in Overall Score on Lee cGvHD Symptom Scale, Mean (Standard Deviation) (Cohort 3: 400 mg QD, Cycle 15, Day 1): −3.2 (8.2) score on a scale | Change From Baseline in Overall Score on Lee cGvHD Symptom Scale, Mean (Standard Deviation) (Cohort 3: 400 mg QD, Cycle 16, Day 1): 1.9 (7.9) score on a scale | Change From Baseline in Overall Score on Lee cGvHD Symptom Scale, Mean (Standard Deviation) (Cohort 3: 400 mg QD, Cycle 27, Day 1): −6.0 (9.6) score on a scale | Change From Baseline in Overall Score on Lee cGvHD Symptom Scale, Mean (Standard Deviation) (Cohort 3: 400 mg QD, Cycle 28, Day 1): 2.6 (—) score on a scale | Change From Baseline in Overall Score on Lee cGvHD Symptom Scale, Mean (Standard Deviation) (Cohort 3: 400 mg QD, Cycle 29, Day 1): −3.7 (13.0) score on a scale | Change From Baseline in Overall Score on Lee cGvHD Symptom Scale, Mean (Standard Deviation) (Cohort 3: 400 mg QD, Cycle 31, Day 1): −12.9 (—) score on a scale | Change From Baseline in Overall Score on Lee cGvHD Symptom Scale, Mean (Standard Deviation) (Cohort 3: 400 mg QD, Cycle 33, Day 1): −12.9 (—) score on a scale | Change From Baseline in Overall Score on Lee cGvHD Symptom Scale, Mean (Standard Deviation) (Cohort 3: 400 mg QD, Cycle 35, Day 1): −12.9 (—) score on a scale | Change From Baseline in Overall Score on Lee cGvHD Symptom Scale, Mean (Standard Deviation) (Cohort 3: 400 mg QD, Cycle 39, Day 1): −12.9 (—) score on a scale | Change From Baseline in Overall Score on Lee cGvHD Symptom Scale, Mean (Standard Deviation) (Cohort 3: 400 mg QD, Cycle 41, Day 1): −12.9 (—) score on a scale | Change From Baseline in Overall Score on Lee cGvHD Symptom Scale, Mean (Standard Deviation) (Cohort 3: 400 mg QD, Cycle 43, Day 1): −12.9 (—) score on a scale | Change From Baseline in Overall Score on Lee cGvHD Symptom Scale, Mean (Standard Deviation) (Cohort 3: 400 mg QD, Cycle 45, Day 1): −12.3 (—) score on a scale | Change From Baseline in Overall Score on Lee cGvHD Symptom Scale, Mean (Standard Deviation) (Cohort 3: 400 mg QD, Cycle 47, Day 1): −12.9 (—) score on a scale | Change From Baseline in Overall Score on Lee cGvHD Symptom Scale, Mean (Standard Deviation) (Cohort 3: 400 mg QD, Cycle 49, Day 1): −14.3 (—) score on a scale | Change From Baseline in Overall Score on Lee cGvHD Symptom Scale, Mean (Standard Deviation) (Cohort 3: 400 mg QD, Cycle 51, Day 1): −12.9 (—) score on a scale | Change From Baseline in Overall Score on Lee cGvHD Symptom Scale, Mean (Standard Deviation) (Cohort 3: 400 mg QD, EOT): 2.5 (11.9) score on a scale | clinically meaningful LSS improvement on consecutive assessments, nonresponders (Example 1): 32% | clinically meaningful LSS improvement on consecutive assessments, responders (Example 1): 37% | LSS improvement, nonresponder, n/N (Total, N=54): 7/19 | LSS improvement, responder, n/N (Total, N=54): 20/35 | clinically significant LSS improvement, overall, % (95% CI) (Total, N=54): 50%
